Results published in patent publication US11414450B1, “Aminoglycosides and uses thereof” (REVAGENIX, INC., priority 2017, dated 2022).

Legend:
Type in all cases: cell-based
[1] = system: E. coli ATCC 25922; test: Minimum inhibitory concentration (broth microdilution, CLSI), E. coli ATCC 25922; settings: Table 2; geometric mean
Protocol: (§1) Minimum inhibitory concentrations for the example compounds herein are determined by the broth microdilution method in accordance with the Clinical and Laboratory Standards Institute (CLSI) guidelines. In brief, organism suspensions are adjusted to a 0.5 McFarland standard to yield a final inoculum between 3×10^5 and 7×10^5 colony-forming units (CFU)/mL. Compound dilutions and inocula are made in sterile, cation adjusted Mueller-Hinton Broth (Beckton Dickinson). The inoculum is prepared by suspension of a colony from an agar plate that is prepared the previous day. Bacteria are suspended in sterile saline and added to each assay plate to obtain a final concentration of 5×10^5 CFU/mL. An inoculum volume of 100 μL is added to wells containing 100 μL of broth with 2-fold serial dilutions of the compound. All inoculated microdilution trays are incubated in ambient air at 35° C. for 18-24 hours. Following incubation, the lowest concentration of the compound that prevents visible growth (OD 600 nm<0.05) is recorded as the MIC. […] Performance of the assay is monitored by the use of laboratory quality-control strains and a compound with a defined MIC spectrum (such as levofloxacin), in accordance with CLSI guidelines. Compounds are tested against multiple microbiologic panels. Panels include: 1) a multi-species primary screening panel that includes multiple defined AG-R mechanisms; 2) a panel of isogenic strains carrying different common mechanisms of AG-R that allows characterization of the SAR for AMEs, RMTs, and entry and efflux resistance mechanisms; and 3) panels of recent clinical isolates selected from Phase 3 studies and ongoing global surveillance.

[2] = system: E. coli efflux parent; test: MIC broth microdilution, E. coli efflux parent strain; settings: Table 2; geometric mean
Protocol: as §1

[3] = system: E. coli Δefflux (tolC efflux pump knocked-out); test: MIC broth microdilution, E. coli Δefflux strain (tolC knocked out); settings: Table 2
Protocol: as §1

[4] = system: E. coli isogenic strain empty vector; test: MIC broth microdilution, E. coli isogenic strain, empty vector; settings: Table 2
Protocol: as §1

[5] = system: E. coli isogenic strain aac(6′)-Ib; test: MIC broth microdilution, E. coli isogenic strain aac(6′)-Ib; settings: Table 2
Protocol: as §1

[6] = system: E. coli isogenic strain aph(3′)-II; test: MIC broth microdilution, E. coli isogenic strain aph(3′)-II; settings: Table 2
Protocol: as §1

[7] = system: E. coli isogenic strain aph(3′)-Ia; test: MIC broth microdilution, E. coli isogenic strain aph(3′)-Ia; settings: Table 2; aph(3′)-Ia has activity at both the 3′-hydroxy and 5″-hydroxy positions
Protocol: as §1

[8] = system: E. coli isogenic strain ant(4′)-Ia; test: MIC broth microdilution, E. coli isogenic strain ant(4′)-Ia; settings: Table 2
Protocol: as §1

[9] = system: E. coli isogenic strain armA; test: MIC broth microdilution, E. coli isogenic strain armA; settings: Table 2
Protocol: as §1

[10] = system: E. coli isogenic strain nmpA; test: MIC broth microdilution, E. coli isogenic strain nmpA; settings: Table 2
Protocol: as §1

Compound: NCC1OC(OC2C(CO)OC(OC3C(O)C(N)CC(N)C3OC3OC(CN)C(O)C(F)C3O)C2O)C(N)C(O)C1O (stereo not shown) [drawing 867]
- Geometric Mean MIC values, E. coli ATCC 25922 [1]: 2 µg/mL
- Geometric Mean MIC values, E. coli efflux parent [2]: 1.4 µg/mL
- Geometric Mean MIC values, E. coli Δefflux [3]: 1 µg/mL
- Geometric Mean MIC values, E. coli isogenic strains, empty vector [4]: 2 µg/mL
- Geometric Mean MIC values, E. coli isogenic strains, aac(6′)-Ib [5]: >64 µg/mL
- Geometric Mean MIC values, E. coli isogenic strains, aph(3′)-II [6]: 1.4 µg/mL
- Geometric Mean MIC values, E. coli isogenic strains, aph(3′)-Ia [7]: 64 µg/mL
- Geometric Mean MIC values, E. coli isogenic strains, ant(4′)-Ia [8]: 64 µg/mL
- Geometric Mean MIC values, E. coli isogenic strains, armA [9]: 2.8 µg/mL
- Geometric Mean MIC values, E. coli isogenic strains, nmpA [10]: >64 µg/mL

Compound: NCC1OC(OC2C(CO)OC(OC3C(O)C(N)CC(N)C3OC3OC(CN)C(F)(F)C(O)C3N)C2O)C(N)C(O)C1O (stereo not shown)
- Geometric Mean MIC values, E. coli ATCC 25922 [1]: 2 µg/mL
- Geometric Mean MIC values, E. coli efflux parent [2]: 2 µg/mL
- Geometric Mean MIC values, E. coli Δefflux [3]: 1 µg/mL
- Geometric Mean MIC values, E. coli isogenic strains, empty vector [4]: 1.4 µg/mL
- Geometric Mean MIC values, E. coli isogenic strains, aac(6′)-Ib [5]: 16 µg/mL
- Geometric Mean MIC values, E. coli isogenic strains, aph(3′)-II [6]: 4 µg/mL
- Geometric Mean MIC values, E. coli isogenic strains, aph(3′)-Ia [7]: >64 µg/mL
- Geometric Mean MIC values, E. coli isogenic strains, ant(4′)-Ia [8]: 1 µg/mL
- Geometric Mean MIC values, E. coli isogenic strains, armA [9]: 4 µg/mL
- Geometric Mean MIC values, E. coli isogenic strains, nmpA [10]: 64 µg/mL

Compound: CCC(N)C1CCC(N)C(OC2C(N)CC(N)C(O)C2OC2OC(CO)C(OC3OC(CN)C(O)C(O)C3N)C2O)O1 (stereo not shown) [drawing 860]
- Geometric Mean MIC values, E. coli ATCC 25922 [1]: 2 µg/mL
- Geometric Mean MIC values, E. coli efflux parent [2]: 1.4 µg/mL
- Geometric Mean MIC values, E. coli Δefflux [3]: 0.71 µg/mL
- Geometric Mean MIC values, E. coli isogenic strains, empty vector [4]: 1 µg/mL
- Geometric Mean MIC values, E. coli isogenic strains, aac(6′)-Ib [5]: 1.3 µg/mL
- Geometric Mean MIC values, E. coli isogenic strains, aph(3′)-II [6]: 1 µg/mL
- Geometric Mean MIC values, E. coli isogenic strains, aph(3′)-Ia [7]: >64 µg/mL
- Geometric Mean MIC values, E. coli isogenic strains, ant(4′)-Ia [8]: 1 µg/mL
- Geometric Mean MIC values, E. coli isogenic strains, armA [9]: 3.2 µg/mL
- Geometric Mean MIC values, E. coli isogenic strains, nmpA [10]: >64 µg/mL

Compound: CC(N)C1CCC(N)C(OC2C(N)CC(N)C(O)C2OC2OC(CO)C(OC3OC(CN)C(O)C(O)C3N)C2O)O1 (stereo not shown) [drawing 857]
- Geometric Mean MIC values, E. coli ATCC 25922 [1]: 1.4 µg/mL
- Geometric Mean MIC values, E. coli efflux parent [2]: 1 µg/mL
- Geometric Mean MIC values, E. coli Δefflux [3]: 0.84 µg/mL
- Geometric Mean MIC values, E. coli isogenic strains, empty vector [4]: 0.84 µg/mL
- Geometric Mean MIC values, E. coli isogenic strains, aac(6′)-Ib [5]: 1 µg/mL
- Geometric Mean MIC values, E. coli isogenic strains, aph(3′)-II [6]: 0.71 µg/mL
- Geometric Mean MIC values, E. coli isogenic strains, aph(3′)-Ia [7]: 64 µg/mL
- Geometric Mean MIC values, E. coli isogenic strains, ant(4′)-Ia [8]: 0.71 µg/mL
- Geometric Mean MIC values, E. coli isogenic strains, armA [9]: 1.5 µg/mL
- Geometric Mean MIC values, E. coli isogenic strains, nmpA [10]: >64 µg/mL

Compound: NCC1OC(OC2C(CO)OC(OC3C(O)C(N)CC(N)C3OC3OC(CN)C(O)C(F)C3N)C2O)C(N)C(O)C1O (stereo not shown) [drawing 869]
- Geometric Mean MIC values, E. coli ATCC 25922 [1]: 1 µg/mL
- Geometric Mean MIC values, E. coli efflux parent [2]: 1 µg/mL
- Geometric Mean MIC values, E. coli Δefflux [3]: 1 µg/mL
- Geometric Mean MIC values, E. coli isogenic strains, empty vector [4]: 1 µg/mL
- Geometric Mean MIC values, E. coli isogenic strains, aac(6′)-Ib [5]: 4 µg/mL
- Geometric Mean MIC values, E. coli isogenic strains, aph(3′)-II [6]: 1 µg/mL
- Geometric Mean MIC values, E. coli isogenic strains, aph(3′)-Ia [7]: >64 µg/mL
- Geometric Mean MIC values, E. coli isogenic strains, ant(4′)-Ia [8]: 1 µg/mL
- Geometric Mean MIC values, E. coli isogenic strains, armA [9]: 4 µg/mL
- Geometric Mean MIC values, E. coli isogenic strains, nmpA [10]: >64 µg/mL

Compound: NCC1CCC(N)C(OC2C(N)CC(N)C(O)C2OC2OC(CO)C(OC3OC(CN)C(O)C(O)C3N)C2O)O1 (stereo not shown) [drawing 856, reference compound]
- Geometric Mean MIC values, E. coli ATCC 25922 [1]: 1.1 µg/mL
- Geometric Mean MIC values, E. coli efflux parent [2]: 0.87 µg/mL
- Geometric Mean MIC values, E. coli Δefflux [3]: 0.87 µg/mL
- Geometric Mean MIC values, E. coli isogenic strains, empty vector [4]: 0.61 µg/mL
- Geometric Mean MIC values, E. coli isogenic strains, aac(6′)-Ib [5]: 5.7 µg/mL
- Geometric Mean MIC values, E. coli isogenic strains, aph(3′)-II [6]: 0.35 µg/mL
- Geometric Mean MIC values, E. coli isogenic strains, aph(3′)-Ia [7]: 64 µg/mL
- Geometric Mean MIC values, E. coli isogenic strains, ant(4′)-Ia [8]: 0.5 µg/mL
- Geometric Mean MIC values, E. coli isogenic strains, armA [9]: 0.74 µg/mL
- Geometric Mean MIC values, E. coli isogenic strains, nmpA [10]: >64 µg/mL

Compound: NCC1OC(OC2C(N)CC(N)C(O)C2OC2OC(CO)C(OC3OC(CN)C(O)C(O)C3N)C2O)C(N)CC1O (stereo not shown) [drawing 864, reference compound]
- Geometric Mean MIC values, E. coli ATCC 25922 [1]: 0.71 µg/mL
- Geometric Mean MIC values, E. coli efflux parent [2]: 0.63 µg/mL
- Geometric Mean MIC values, E. coli Δefflux [3]: 0.25 µg/mL
- Geometric Mean MIC values, E. coli isogenic strains, empty vector [4]: 0.32 µg/mL
- Geometric Mean MIC values, E. coli isogenic strains, aac(6′)-Ib [5]: 2 µg/mL
- Geometric Mean MIC values, E. coli isogenic strains, aph(3′)-II [6]: 0.25 µg/mL
- Geometric Mean MIC values, E. coli isogenic strains, aph(3′)-Ia [7]: 38 µg/mL
- Geometric Mean MIC values, E. coli isogenic strains, ant(4′)-Ia [8]: 2 µg/mL
- Geometric Mean MIC values, E. coli isogenic strains, armA [9]: 0.6 µg/mL
- Geometric Mean MIC values, E. coli isogenic strains, nmpA [10]: >64 µg/mL

Compound: NCC1OC(OC2C(CO)OC(OC3C(O)C(N)CC(N)C3OC3OC(CN)C(O)C(F)C3N)C2O)C(N)C(O)C1O (stereo not shown) [drawing 866]
- Geometric Mean MIC values, E. coli ATCC 25922 [1]: 1.3 µg/mL
- Geometric Mean MIC values, E. coli efflux parent [2]: 1.4 µg/mL
- Geometric Mean MIC values, E. coli Δefflux [3]: 0.71 µg/mL
- Geometric Mean MIC values, E. coli isogenic strains, empty vector [4]: 0.63 µg/mL
- Geometric Mean MIC values, E. coli isogenic strains, aac(6′)-Ib [5]: 8 µg/mL
- Geometric Mean MIC values, E. coli isogenic strains, aph(3′)-II [6]: 1 µg/mL
- Geometric Mean MIC values, E. coli isogenic strains, aph(3′)-Ia [7]: >64 µg/mL
- Geometric Mean MIC values, E. coli isogenic strains, ant(4′)-Ia [8]: 8 µg/mL
- Geometric Mean MIC values, E. coli isogenic strains, armA [9]: 1.4 µg/mL
- Geometric Mean MIC values, E. coli isogenic strains, nmpA [10]: >64 µg/mL

Compound: NC[C@@H]1O[C@H](O[C@H]2[C@@H](O)[C@H](O[C@@H]3[C@@H](O)[C@H](N)C[C@H](N)[C@H]3O[C@H]3O[C@H](CN)[C@@H](O)[C@H](O)[C@H]3N)O[C@@H]2CO)[C@H](N)[C@@H](O)[C@@H]1O [NEO, neomycin B, reference compound]
- Geometric Mean MIC values, E. coli ATCC 25922 [1]: 1 µg/mL
- Geometric Mean MIC values, E. coli efflux parent [2]: 0.76 µg/mL
- Geometric Mean MIC values, E. coli Δefflux [3]: 0.79 µg/mL
- Geometric Mean MIC values, E. coli isogenic strains, empty vector [4]: 0.64 µg/mL
- Geometric Mean MIC values, E. coli isogenic strains, aac(6′)-Ib [5]: 1.6 µg/mL
- Geometric Mean MIC values, E. coli isogenic strains, aph(3′)-II [6]: 18 µg/mL
- Geometric Mean MIC values, E. coli isogenic strains, aph(3′)-Ia [7]: >64 µg/mL
- Geometric Mean MIC values, E. coli isogenic strains, ant(4′)-Ia [8]: 2.2 µg/mL
- Geometric Mean MIC values, E. coli isogenic strains, armA [9]: 0.75 µg/mL
- Geometric Mean MIC values, E. coli isogenic strains, nmpA [10]: 80 µg/mL

Compound: NCC1OC(OC2C(CO)OC(OC3C(O)C(N)CC(N)C3OC3OC(CN)C(O)C(F)C3N)C2O)C(N)C(O)C1O (stereo not shown) [drawing 868]
- Geometric Mean MIC values, E. coli ATCC 25922 [1]: 16 µg/mL
- Geometric Mean MIC values, E. coli efflux parent [2]: 8 µg/mL
- Geometric Mean MIC values, E. coli Δefflux [3]: 4 µg/mL
- Geometric Mean MIC values, E. coli isogenic strains, empty vector [4]: 16 µg/mL
- Geometric Mean MIC values, E. coli isogenic strains, aac(6′)-Ib [5]: >64 µg/mL
- Geometric Mean MIC values, E. coli isogenic strains, aph(3′)-II [6]: 8 µg/mL
- Geometric Mean MIC values, E. coli isogenic strains, aph(3′)-Ia [7]: >64 µg/mL
- Geometric Mean MIC values, E. coli isogenic strains, ant(4′)-Ia [8]: 32 µg/mL
- Geometric Mean MIC values, E. coli isogenic strains, armA [9]: 64 µg/mL
- Geometric Mean MIC values, E. coli isogenic strains, nmpA [10]: >64 µg/mL
